Laboratory results published in patent US20260297031A1, “HYDROXYLAMINE-BASED BCR-ABL1 INHIBITORS FOR TREATMENT OF CANCER” (University of Georgia Research Foundation, Inc., priority 2023, published 2026).
pIC50: −log10 of the molar value. In brackets after ≈: the same amount, converted by molar mass.

Columns and labels:
[1] = Plasma protein binding by equilibrium dialysis, rat plasma; format: in vitro ADME; conditions: plasma, 5 μM, read-out: fu, plasma %
Procedure: (§1) Plasma Protein Binding by Equilibrium Dialysis (Independently Performed by Pharmaron Inc., Ninqbo, CN)
(§2) Initially, 1 mM solutions of test compounds and the control compound (Ketoconzaole) were prepared in DMSO. After this, dialysis membranes were soaked in ultrapure water for 60 min to separate strips, followed by 20% aq. ethanol for 20 min, and finally in a dialysis buffer for 20 min. […] After this, 597 μL of blank plasma solution followed by 3 μL of the working solutions of either test compounds or control compound were added to a new plastic plate or separate plastic tube and the solutions were vortexed at 1,000 rpm for 2 min. Immediately after this, 50 μL of spiked plasma solution suspension was transferred to a 96-well plate to act as T=0 control. The remaining samples were treated in the same manner, whereby all remaining spiked plasma solutions were added to the incubator for the duration of the study.
Cells were then loaded with 120 μL of the plasma samples and dialyzed against an equal volume of dialysis buffer (PBS). […] At the end of incubation, the lid was removed and 50 μL of post-dialysis samples were removed from both buffer and plasma solution chambers into a separate 96-well plate for analysis. The plasma solutions (50 μL) were then added to the buffer samples along with an equal volume of PBS (50 μL) to the collected plasma solution samples. The plate was shaken at 1,000 rpm for 2 min and 400 μL of acetonitrile containing an appropriate internal standard was added to precipitate protein and release compound. The samples were then vortexed at 1,000 rpm for an additional 10 min followed by centrifugation at 3,220 g for 30 min. […] The samples were analyzed by LC-MS/MS and 100 μL of distilled water was added to each sample prior to analysis.
(§3) Concentrations of test compounds and control compound in buffer and plasma solution chambers was determined and percentages of test compounds and control compound bound using the following equations (mean of n=2 replicates): […]

Aqueous solubility = experiment: Aqueous solubility
Procedure: Solubility Determinations (Independently Performed by Pharmaron Inc., Ninqbo, CN)
Test compounds and control compounds (progesterone or diclofenac) were initially prepared as 10 mM DMSO stock solutions. […] After such time, plugs and stir sticks were removed and the samples from the solubility sample plate were transferred into the filter plate. All the samples were then filtered and 5 μL of filtrate was taken and added along with 5 μL of DMSO and 490 μL of a 1:1 (v/v) mixture of H2O and acetonitrile containing internal standard (100 nM alprazolam, 200 nM Caffeine and 100 nM tolbutamide) to the plate yielding a final concentration of 3 μM. The samples were then analyzed by LC-MS and diluted according to the peak shape with ultrapure water.
Filtrate was analyzed and quantified against a standard of known concentration using LC coupled with MS peak identification and quantitation. Solubility values of test compounds and progesterone were calculated as follows and are presented as the mean of n=2 replicates: […]

mutant BCR-ABL1 = experiment: KinaseProfiler radiometric kinase assay, mutant BCR-ABL1 kinases as a group; format: biochemical, human; conditions: for pIC50: read-out: IC50 against (imatinib resistant / relevant) mutant BCR-ABL1 kinases, group of mutants
Text: Biochemical Human RTK Kinase Enzymatic Radiometric Assay, KinaseProfiler (Independently Performed by Eurofins Cerep SA, FR)

BCR-ABL1 Q252H = target: T1, BCR-ABL1 Q252H (Homo sapiens, UniProt P00519, Q252H); experiment: KinaseProfiler radiometric kinase assay, BCR-ABL1 Q252H; format: biochemical; conditions: [ATP] = 10 μM; mean of n = 2
T1 construct: BCR (fusion partner, as the printed name BCR-ABL1 says)

[2] = Plasma protein binding by equilibrium dialysis, human plasma; format: in vitro ADME; conditions: for % Unbound: human plasma, 360 min, 5 µM
Procedure: as §1, §2
Cells were then loaded with 120 μL of the plasma samples and dialyzed against an equal volume of dialysis buffer (PBS). […] At the end of incubation, the lid was removed and 50 μL of post-dialysis samples were removed from both buffer and plasma solution chambers into a separate 96-well plate for analysis. The plasma solutions (50 μL) were then added to the buffer samples along with an equal volume of PBS (50 μL) to the collected plasma solution samples. The plate was shaken at 1,000 rpm for 2 min and 400 μL of acetonitrile containing an appropriate internal standard was added to precipitate protein and release compound. The samples were then vortexed at 1,000 rpm for an additional 10 min followed by centrifugation at 3,220 g for 30 min. Supernatant (250 μL) was then added to a new 96-well plate and centrifuged again at 3,220 g for 30 min and 100 μL of this supernatant was then added to a new 96-well plate for analysis. The samples were analyzed by LC-MS/MS and 100 μL of distilled water was added to each sample prior to analysis.
as §3

Caco-2 permeability = conditions: human
Procedure: Caco-2 Permeability (Independently Performed by Pharmaron Inc., Ningbo, CN)
To each well of the Transwell insert and reservoir were added 50 μL and 25 mL of cell culture medium, respectively. […] Following this, the Caco-2 plate was removed from the incubator and the monolayer washed twice with pre-warmed HBSS (10 mM HEPES, pH 7.4).
To determine the rate of drug transport in the apical to basolateral direction, 125 μL of the working solution of either test compounds or control compounds was added to the Transwell insert (apical compartment) and a 50 μL sample was immediately transported from the apical compartment to 200 μL of acetonitrile containing internal standard (100 nM alprazolam, 200 nM Caffeine and 100 nM tolbutamide) in a new 96-well plate as the initial donor sample (A-B). The sample was then vortexed at 1,000 rpm for 10 min. The receiver plate (basolateral compartment) wells were then filled with 235 μL of transport buffer. To determine the rate of drug transport in the basolateral to apical direction, 285 μL of the working solution of either test compounds or control compounds was added to the receiver plate wells (basolateral compartment) and a 50 μL sample was immediately transferred from the basolateral compartment to 200 μL of acetonitrile containing internal standard in a new 96-well plate as the initial donor sample (B-A). The sample was vortexed at 1,000 rpm for 10 min. The Transwell insert (apical compartment) was then filled with 75 μL of transport buffer and the apical to basolateral direction and the basolateral to apical direction were done at the same time. […] After incubation, 50 μL samples from donor sides (apical compartment for Ap→BI flux, and basolateral compartment for BI→Ap) and receiver sides (basolateral compartment for Ap→BI flux, and apical compartment for BI→Ap) were transferred to wells of a new 96-well plate, followed by the addition of 200 μL acetonitrile containing internal standard. All samples were vortexed for 10 min and then centrifuged at 3,220 g for 40 min. A 150 μL aliquot of the supernatant was then mixed with an appropriate volume of ultra-pure water prior to LC-MS/MS analysis.
To monitor for monolayer integrity, Lucifer yellow leakage was determined after the 2 h transport period. This began by preparing a stock solution of Lucifer yellow in DMSO which was diluted with HBSS (10 mM HEPES, pH 7.4.) to reach a final concentration of 100 μM. To each Transwell insert (apical compartment) was then added 100 μL of the Lucifer yellow solution, followed by filling the wells in the receiver plate (basolateral compartment) with 300 μL of HBSS (10 mM HEPES, pH 7.4).
The efflux ratio was determined using the following equation: […]

[3] = Plasma protein binding by equilibrium dialysis, mouse plasma; format: in vitro ADME, mouse (CD-1); conditions: 360 min, 5 µM
Procedure: as §1, §2
Cells were then loaded with 120 μL of the plasma samples and dialyzed against an equal volume of dialysis buffer (PBS). […] The samples were analyzed by LC-MS/MS and 100 μL of distilled water was added to each sample prior to analysis.
as §3

hERG channel = hERG channel (Homo sapiens, UniProt Q12809); experiment: hERG safety evaluation by manual patch-clamp system
Chain of hERG channel (Q12809 whole entry): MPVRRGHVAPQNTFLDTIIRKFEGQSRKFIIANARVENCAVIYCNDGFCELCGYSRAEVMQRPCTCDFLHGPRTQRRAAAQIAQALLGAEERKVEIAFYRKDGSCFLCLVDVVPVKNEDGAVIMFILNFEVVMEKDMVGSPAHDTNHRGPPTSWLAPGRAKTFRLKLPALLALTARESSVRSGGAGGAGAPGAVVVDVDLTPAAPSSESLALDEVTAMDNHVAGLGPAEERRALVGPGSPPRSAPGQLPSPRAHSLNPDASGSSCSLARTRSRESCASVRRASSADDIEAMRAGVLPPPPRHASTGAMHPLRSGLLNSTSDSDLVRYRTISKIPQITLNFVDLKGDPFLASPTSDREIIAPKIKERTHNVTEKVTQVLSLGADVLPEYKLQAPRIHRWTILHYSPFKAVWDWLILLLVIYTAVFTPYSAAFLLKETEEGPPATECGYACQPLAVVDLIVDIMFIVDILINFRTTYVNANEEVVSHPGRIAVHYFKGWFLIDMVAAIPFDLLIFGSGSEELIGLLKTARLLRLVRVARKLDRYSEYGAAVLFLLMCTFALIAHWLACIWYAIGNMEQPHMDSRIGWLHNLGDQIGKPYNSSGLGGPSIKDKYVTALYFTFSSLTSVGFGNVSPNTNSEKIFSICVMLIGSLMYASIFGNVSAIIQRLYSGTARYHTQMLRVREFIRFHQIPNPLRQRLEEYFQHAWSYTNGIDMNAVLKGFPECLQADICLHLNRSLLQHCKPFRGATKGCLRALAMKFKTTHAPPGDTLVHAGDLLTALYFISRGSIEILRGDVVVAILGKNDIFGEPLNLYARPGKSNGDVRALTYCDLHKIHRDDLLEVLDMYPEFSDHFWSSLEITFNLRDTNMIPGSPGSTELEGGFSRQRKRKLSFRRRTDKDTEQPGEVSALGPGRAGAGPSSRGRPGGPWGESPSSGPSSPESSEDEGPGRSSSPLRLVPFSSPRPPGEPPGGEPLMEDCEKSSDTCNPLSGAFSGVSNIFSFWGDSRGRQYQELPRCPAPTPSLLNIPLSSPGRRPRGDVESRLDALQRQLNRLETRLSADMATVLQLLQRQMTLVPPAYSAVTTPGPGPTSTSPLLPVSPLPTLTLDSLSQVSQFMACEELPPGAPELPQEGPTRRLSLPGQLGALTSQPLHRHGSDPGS

Q: For `COc1cc(Nc2c(C#N)cnc3cc(OCCON4CCN(C)CC4)c(OC)cc23)c(F)cc1Cl` [Compound 15, 4-((4-chloro-2-fluoro-5-methoxyphenyl)amino)-6-methoxy-7-(2-((4-methylpiperazin-1-yl)oxy)ethoxy)quinoline-3-carbonitrile], which fraction unbound at 6 h, 5 µM [1] is on record?
A: 0.049

Q: And the solubility kinetic at 2 h (Aqueous solubility; phosphate buffer, pH 7.4, aqueous buffer)?
A: 43 µM (≈ 22.2 µg/mL)

Q: What about the “BCR-ABL1 kinase activity, in words” value (mutant BCR-ABL1) of the same compound?
A: single-digit nanomolar biochemical activity

Q: What about the pIC50 (mutant BCR-ABL1) of the same compound?
A: > 9.00

Q: What about the pIC50 (BCR-ABL1 Q252H) of the same compound?
A: 8.70

Q: And the “% Unbound” value [2]?
A: 5.58%

Q: What about the fraction unbound at 6 h, 5 µM ([2]; plasma, human, 5 μM, read-out: fu, plasma %) of the same compound?
A: 0.056

Q: What about the Papp A→B at 2 h, 5 µM (Caco-2 permeability) of the same compound?
A: 1.9 ×10⁻⁶ cm/s

Q: For `COc1cc2c(Nc3cccc(OC)c3Cl)c(C#N)cnc2cc1OCCON1CCN(C)CC1` [Compound 17, 4-((2-Chloro-3-methoxyphenyl)amino)-6-methoxy-7-(2-((4-methylpiperazin-1-yl)oxy)ethoxy)quinoline-3-carbonitrile], which “solubility, in words” value (Aqueous solubility) is on record?
A: high aqueous solubility at pH 7.4

Q: And the pIC50 (mutant BCR-ABL1)?
A: ≤ 7.82

Q: What about the “% Unbound” value [3] of the same compound?
A: 11.93%

Q: And the pIC50 (BCR-ABL1 Q252H)?
A: 7.43

Q: What about the “hERG liability, in words” value (hERG channel) of the same compound?
A: minimal hERG inhibition

Q: What about the “% Unbound” value [2] of the same compound?
A: 7.37%

Q: For `COc1cc(Cl)ccc1Nc1c(C#N)cnc2cc(OCCON3CCN(C)CC3)c(OC)cc12` [Compound 20, 4-((4-Chloro-2-methoxyphenyl)amino)-6-methoxy-7-(2-((4-methylpiperazin-1-yl)oxy)ethoxy)quinoline-3-carbonitrile], which “% Unbound” value [3] is on record?
A: 9.71%

Q: What about the pIC50 (BCR-ABL1 Q252H) of the same compound?
A: 8.00

Q: What about the “% Unbound” value [2] of the same compound?
A: 7.73%
